{
  "source": "patent US20100292345A1",
  "about": "“THERAPEUTIC USES OF CANNABIGEROL” (GW PHARMA LIMITED, priority 2007, published 2010)",
  "key": {"[1]": {"biological_target": "T1, human cannabinoid CB2 receptors (Homo sapiens, UniProt P34972)", "T1 construct": "expressed in transfected cells; host or cells: CHO cells, stably transfected", "T1 sequence (P34972 whole entry)": "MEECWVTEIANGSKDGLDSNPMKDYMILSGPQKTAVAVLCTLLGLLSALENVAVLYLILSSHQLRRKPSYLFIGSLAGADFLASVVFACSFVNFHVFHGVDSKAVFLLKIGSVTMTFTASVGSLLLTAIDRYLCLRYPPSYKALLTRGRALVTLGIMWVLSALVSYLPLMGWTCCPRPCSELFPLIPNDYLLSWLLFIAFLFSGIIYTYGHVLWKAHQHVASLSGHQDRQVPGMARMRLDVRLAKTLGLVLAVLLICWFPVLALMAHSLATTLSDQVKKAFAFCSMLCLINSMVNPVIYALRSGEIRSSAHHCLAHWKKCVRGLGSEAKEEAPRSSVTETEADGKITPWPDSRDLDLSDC", "assay": "Inhibition of forskolin-stimulated cyclic AMP production in hCB2-CHO cells", "assay_type": "cell-based", "set-up": "Emax, inhibition of forskolin-stimulated cyclic AMP production: unit not given here"}, "[2]": {"biological_target": "T1, human cannabinoid CB2 receptors", "assay": "[3H]CP55940 radioligand displacement assay, hCB2-CHO cell membranes", "conditions": "membranes prepared from hCB2-CHO cells; 37° C., 60 min; read-out: Ki, displacement of [3H]CP55940 from specific binding sites", "method": "(§1) Whole mouse brain membranes were prepared as described by Thomas et al., 2004. CHO cells were stably transfected with cDNA encoding human cannabinoid CB2 receptors and were maintained at 37° C. and 5% CO2 in Dulbecco's Modified Eagle's Medium nutrient mixture.\n(§2) The assays were carried out with the established CB1 and CB2 cannabinoid receptor agonist CP55940. This was radiolabelled to form [^3H]CP55940.\n(§3) Binding of the radiolabelled compound was initiated by the addition of either the brain membranes (33 μg protein per tube) or the transfected hCB2 cells (25 μg protein per tube).\n(§4) All assays were performed at 37° C. for 60 min before termination by addition of ice-cold wash buffer (50 mM Tris buffer, 1 mg ml^−1 bovine serum albumin, pH 7.4) and vacuum filtration using a 24-well sampling manifold and GF/B filters that had been soaked in wash buffer at 4° C. for at least 24 h.\n(§5) The test compounds were also tested to determine whether they were able to displace the agonist CP55940 from the binding site of the CB1 or CB2 receptor. The Ki-value that resulted from this investigation gives an insight into how strongly the test compound competes with the agonist for the binding site."}, "[3]": {"test_system": "CB1 receptors in mouse brain tissue", "assay": "[35S]GTPγS binding assay, mouse brain membranes", "assay_type": "biochemical", "conditions": "conclusion from the example data", "method": "as §1\nThe assays were carried out with GTPγS binding buffer (50 mM Tris-HCl; 50 mM Tris-Base; 5 mM MgCl2; 1 mM EDTA; 100 mM NaCl; 1 mM DTT; 0.1% BSA) in the presence of [^35S]GTPγS and GDP, in a final volume of 500 μl. Binding was initiated by the addition of [^35S]GTPγS to the tubes. The drugs were incubated in the assay for 60 min at 30° C. The reaction was terminated by a rapid vacuum filtration method using Tris buffer (50 mM Tris-HCl; 50 mM Tris-Base; 0.1% BSA), as described previously, and the radioactivity was quantified by liquid scintillation spectrometry.\nThe agonism of the CB1 or CB2 receptors by CP55940 results in a response in the cell. This response is the binding of [^35S]GTPγS to the cell membrane.\nChanges in the response in the presence of the test compound can be measured in order to determine whether the compound is acting as an agonist, a neutral antagonist or an inverse agonist. An agonist will increase the response, a neutral antagonist will have no effect on the response and an inverse agonist will stop or reverse the response. […]"}, "[4]": {"biological_target": "T2, CB1 receptors in mouse brain tissue (Mus musculus, UniProt P47746)", "T2 construct": "Whole mouse brain membranes were prepared as described by Thomas et al., 2004; from tissue; host or cells: whole mouse brain membranes", "T2 sequence (P47746 whole entry)": "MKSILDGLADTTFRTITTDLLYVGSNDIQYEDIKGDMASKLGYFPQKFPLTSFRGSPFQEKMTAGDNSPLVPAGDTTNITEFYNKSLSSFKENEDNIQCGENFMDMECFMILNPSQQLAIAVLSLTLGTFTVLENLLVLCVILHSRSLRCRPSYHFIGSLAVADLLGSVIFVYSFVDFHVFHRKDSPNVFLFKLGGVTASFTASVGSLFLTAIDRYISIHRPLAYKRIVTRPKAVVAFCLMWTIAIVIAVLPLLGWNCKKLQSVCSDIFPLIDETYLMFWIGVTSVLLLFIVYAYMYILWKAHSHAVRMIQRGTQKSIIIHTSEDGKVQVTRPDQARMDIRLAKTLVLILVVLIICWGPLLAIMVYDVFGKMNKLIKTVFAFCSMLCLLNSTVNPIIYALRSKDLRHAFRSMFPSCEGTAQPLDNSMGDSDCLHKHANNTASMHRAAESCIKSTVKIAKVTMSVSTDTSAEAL", "assay": "[3H]CP55940 radioligand displacement assay, mouse whole brain membranes", "assay_type": "binding", "method": "as §1, §2, §3, §4, §5"}},
  "data": [
    {"smiles": "CCCCCc1cc(O)c(C/C=C(\\C)CCC=C(C)C)c(O)c1", "note": "[CBG, cannabigerol]", "values": [
      {"measurement": "functional character at CB2 receptor", "setting": "[1]; conclusion from the example data", "value": "partial agonist"},
      {"measurement": "EC50", "setting": "[1]; hCB2-CHO cells, 5 μM forskolin", "value": 388, "unit": "nM"},
      {"measurement": "Emax, inhibition of forskolin-stimulated cyclic AMP production", "setting": "[1]; hCB2-CHO cells, 5 μM forskolin", "value": 28.3},
      {"measurement": "efficacy relative to CP55940 in inhibiting forskolin-stimulated cyclic AMP production", "setting": "[1]; hCB2-CHO cells, 5 μM forskolin, submicromolar concentrations", "value": "efficacy less than that of CP55940"},
      {"measurement": "Ki", "setting": "[2]", "value": 337, "unit": "nM"},
      {"measurement": "functional character at CB1 receptor", "setting": "[3]", "value": "partial agonist"},
      {"measurement": "Ki", "setting": "[4]", "value": 439, "unit": "nM"}
    ]}
  ]
}
